Tests used:
[1] = system: Lewis lung carcinoma (3LL); experiment: Lung metastasis system of intravenously injected 3LL; assay type: in vivo, C57BL/6 mice; conditions: 25 mg/mouse, twice a week
Experimental: By using a lung metastasis system of Lewis lung carcinoma (3LL), the tumor metastasis inhibition effect of eMIP was evaluated. Female C57BL/6 mice aged 7 weeks were employed. 10^6 3LL cells were injected into each animal via the tail vein. After 25 days, the lungs were taken out, weighed and fixed with Bouin' solution. Then, cancer tissues metastasized into the lungs were counted under a stereoscopic microscope. 30 minutes after the 3LL transplantation, eMIP was injected as the first administration followed by continuous administration once a week for 4 weeks. In the system wherein the administration was initiated 7 days after the 3LL transplantation, the effect of eMIP was examined. 5Fu employed as a control was administered twice a week.

[2] = system: dendritic cell precursors; conditions: Yoneyama 2001; Zhang 2004; cited from earlier work

Q: With `O=c1[nH]cc(F)c(=O)[nH]1` [5Fu] as the molecule, how does the “inhibition rate of metastasis into the lungs” value [1] read?
A: 78%

B1: MIP-1α: molecule of about 70 amino acids belonging to the C—C chemokine family, ligand for CCR1 and CCR5 (protein, UniProt P10147 24-92, looked up)
C-C motif chemokine 3: SLAADTPTACCFSYTSRQIPQNFIADYFETSSQCSKPGVIFLTKRSRQVCADPSEEWVQKYVSDLELSA
Q: For B1, which “mobilization of dendritic cell precursors in the blood” value [2] is on record?
A: several ten-fold
